For 29 molecules, IC50 results are on record in patent publication US12441703B2, “Carboxamides as modulators of sodium channels” (VERTEX PHARMACEUTICALS INCORPORATED, priority 2019, dated 2025).

Sequence of human NaV 1.8 (Q9Y5Y9 whole entry, looked up, the tested form may be a part): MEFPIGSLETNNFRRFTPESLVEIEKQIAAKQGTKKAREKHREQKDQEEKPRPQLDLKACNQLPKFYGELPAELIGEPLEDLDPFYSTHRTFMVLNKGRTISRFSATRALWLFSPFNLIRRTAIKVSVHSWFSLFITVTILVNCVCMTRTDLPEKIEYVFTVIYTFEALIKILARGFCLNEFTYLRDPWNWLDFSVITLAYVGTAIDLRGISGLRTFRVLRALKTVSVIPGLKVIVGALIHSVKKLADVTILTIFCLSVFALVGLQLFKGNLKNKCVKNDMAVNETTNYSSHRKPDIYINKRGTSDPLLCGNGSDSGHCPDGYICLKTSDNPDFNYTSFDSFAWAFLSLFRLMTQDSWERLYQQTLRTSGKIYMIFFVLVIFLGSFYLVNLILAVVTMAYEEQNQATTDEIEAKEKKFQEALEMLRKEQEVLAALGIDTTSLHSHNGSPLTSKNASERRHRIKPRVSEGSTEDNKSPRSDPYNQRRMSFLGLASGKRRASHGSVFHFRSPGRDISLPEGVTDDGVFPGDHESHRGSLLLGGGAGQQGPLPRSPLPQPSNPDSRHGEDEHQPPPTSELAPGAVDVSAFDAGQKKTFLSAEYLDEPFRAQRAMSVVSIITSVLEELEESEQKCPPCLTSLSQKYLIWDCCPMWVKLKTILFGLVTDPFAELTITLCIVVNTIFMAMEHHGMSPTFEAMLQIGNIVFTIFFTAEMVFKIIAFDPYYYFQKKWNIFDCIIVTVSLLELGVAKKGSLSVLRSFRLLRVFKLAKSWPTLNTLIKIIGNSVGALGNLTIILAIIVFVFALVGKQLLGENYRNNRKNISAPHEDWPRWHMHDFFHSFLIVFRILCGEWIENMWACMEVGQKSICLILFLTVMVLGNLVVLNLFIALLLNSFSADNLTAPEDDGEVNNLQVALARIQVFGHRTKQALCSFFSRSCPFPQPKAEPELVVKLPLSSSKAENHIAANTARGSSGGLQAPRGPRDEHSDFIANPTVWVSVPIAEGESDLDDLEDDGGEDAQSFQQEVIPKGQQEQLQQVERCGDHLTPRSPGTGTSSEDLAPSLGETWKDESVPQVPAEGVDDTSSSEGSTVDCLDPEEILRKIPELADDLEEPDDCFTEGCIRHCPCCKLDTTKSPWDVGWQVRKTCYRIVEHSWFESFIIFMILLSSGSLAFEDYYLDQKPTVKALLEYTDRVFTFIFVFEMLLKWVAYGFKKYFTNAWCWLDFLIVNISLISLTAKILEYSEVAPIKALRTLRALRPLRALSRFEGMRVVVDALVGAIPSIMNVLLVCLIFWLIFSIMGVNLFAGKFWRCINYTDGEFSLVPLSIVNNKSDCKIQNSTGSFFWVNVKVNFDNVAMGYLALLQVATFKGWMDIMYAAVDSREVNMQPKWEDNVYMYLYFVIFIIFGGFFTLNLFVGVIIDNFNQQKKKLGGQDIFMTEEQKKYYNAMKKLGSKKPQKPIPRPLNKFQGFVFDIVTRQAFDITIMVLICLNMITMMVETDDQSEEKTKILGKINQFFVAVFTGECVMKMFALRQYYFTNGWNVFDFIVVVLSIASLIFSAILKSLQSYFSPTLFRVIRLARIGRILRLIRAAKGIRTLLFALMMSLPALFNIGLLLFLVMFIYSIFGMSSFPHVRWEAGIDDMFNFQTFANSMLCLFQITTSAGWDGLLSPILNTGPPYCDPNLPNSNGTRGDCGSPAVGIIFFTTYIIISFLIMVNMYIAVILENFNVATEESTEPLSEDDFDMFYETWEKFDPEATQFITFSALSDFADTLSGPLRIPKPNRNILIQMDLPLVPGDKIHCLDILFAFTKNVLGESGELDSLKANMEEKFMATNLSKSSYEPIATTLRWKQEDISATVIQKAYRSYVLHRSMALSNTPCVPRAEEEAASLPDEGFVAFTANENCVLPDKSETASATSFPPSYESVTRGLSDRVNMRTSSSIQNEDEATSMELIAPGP

In this assay the target is human NaV 1.8 (Homo sapiens, UniProt Q9Y5Y9). Put plainly: E-VIPR assay for detecting and measuring NaV inhibition properties. The note with it: E-VIPR assay conducted in the presence of human serum; HEK cells expressing truncated human NaV 1.8; read-out: IC50. It is filed as cell-based. Summed up:
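Membrane-potential (coumarin/oxonol) readout after 10 s of 10 Hz biphasic electrical stimulation on E-VIPR. Compounds: 11-point 3-fold dilutions, […], 0.625% DMSO, 30 min at room temperature, human serum optional. Cells: HEK expressing truncated human NaV1.8 co-transduced with KIR2.1.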
A word on the IC50: it is the point on the concentration scale where inhibition reaches its midpoint. `NC(=O)c1cc(NC(=O)c2c(Oc3ccc(OC(F)(F)F)c(F)c3Cl)ccc(C(F)(F)F)c2F)ccn1` [Compound 298, 4-[[6-[2-Chloro-3-Fluoro-4-(Trifluoromethoxy)Phenoxy]-2-Fluoro-3-(Trifluoromethyl)Benzoyl]Amino]Pyridine-2-Carboxamide]: the IC50 is 9.8 nM.

`COc1cc(Oc2ccc(F)c(F)c2OC)c(C(=O)Nc2ccnc(C(N)=O)c2)c(F)c1C(F)(F)F` [Compound 299, 4-[[6-(3,4-Difluoro-2-Methoxy-Phenoxy)-2-Fluoro-4-Methoxy-3-(Trifluoromethyl)Benzoyl]Amino]Pyridine-2-Carboxamide]: the 50% inhibitory concentration (IC50) was found to be 6.4 nM.

On to `CNC(=O)c1cc(NC(=O)c2c(Oc3ccc(F)c(F)c3OC)cc(OC)c(C(F)(F)F)c2NC)ccn1` [Compound 300, 4-[[6-(3,4-Difluoro-2-Methoxy-Phenoxy)-4-Methoxy-2-(Methylamino)-3-(Trifluoromethyl)Benzoyl]Amino]-N-Methyl-Pyridine-2-Carboxamide], for which the IC50 was 1400 nM.

Turning to `CNC(=O)c1cc(NC(=O)c2c(Oc3ccc(F)c(F)c3OC)cc(OC)c(C(F)(F)F)c2F)ccn1` [Compound 301, 4-[[6-(3,4-Difluoro-2-Methoxy-Phenoxy)-2-Fluoro-4-Methoxy-3-(Trifluoromethyl)Benzoyl]Amino]-N-Methyl-Pyridine-2-Carboxamide], the IC50 worked out at 22 nM.

Regarding `COc1c(Oc2cnc(C(F)(F)F)c(OC)c2C(=O)Nc2cc(C(N)=O)ncc2C)ccc(F)c1F` [Compound 302, N-(2-carbamoyl-5-methyl-4-pyridyl)-5-(3,4-difluoro-2-methoxy-phenoxy)-3-methoxy-2-(trifluoromethyl)pyridine-4-carboxamide], the concentration for half-maximal inhibition (IC50) worked out at 280 nM.

In the case of `COc1c(Oc2ccc(F)c(F)c2C(=O)Nc2ccnc(C(N)=O)c2)ccc(OC(F)(F)F)c1F` [Compound 303, 4-[[2,3-difluoro-6-[3-fluoro-2-methoxy-4-(trifluoromethoxy)phenoxy]benzoyl]amino]pyridine-2-carboxamide], the concentration for half-maximal inhibition (IC50) was 19 nM.

Take `COc1c(Oc2ccc(F)c(F)c2C(=O)Nc2cc(C(N)=O)ncc2C)ccc(OC(F)(F)F)c1F` [Compound 304, 4-[[2,3-difluoro-6-[3-fluoro-2-methoxy-4-(trifluoromethoxy)phenoxy]benzoyl]amino]-5-methyl-pyridine-2-carboxamide]: the IC50 worked out at 54 nM.

As to `COc1c(Oc2ccc(Cl)c(F)c2C(=O)Nc2ccnc(C(N)=O)c2)ccc(OC(F)(F)F)c1F` [Compound 305, 4-[[3-chloro-2-fluoro-6-[3-fluoro-2-methoxy-4-(trifluoromethoxy)phenoxy]benzoyl]amino]pyridine-2-carboxamide], the concentration for half-maximal inhibition (IC50) is 2.3 nM.

Regarding `COc1c(Oc2ccc(Cl)c(F)c2C(=O)Nc2ccc(C(N)=O)nc2)ccc(OC(F)(F)F)c1F` [Compound 306, 5-[[3-chloro-2-fluoro-6-[3-fluoro-2-methoxy-4-(trifluoromethoxy)phenoxy]benzoyl]amino]pyridine-2-carboxamide], the IC50 worked out at 19 nM.

Consider `COc1c(Oc2cc(F)c(F)c(F)c2C(=O)Nc2ccnc(C(N)=O)c2)ccc(OC(F)(F)F)c1F` [Compound 307, 4-[[2,3,4-trifluoro-6-[3-fluoro-2-methoxy-4-(trifluoromethoxy)phenoxy]benzoyl]amino]pyridine-2-carboxamide], for which the half-inhibitory concentration (IC50) was found to be 5.9 nM.

In the case of `COc1c(Oc2cc(F)c(F)c(F)c2C(=O)Nc2cnc(C(N)=O)nc2)ccc(OC(F)(F)F)c1F` [Compound 308, 5-[[2,3,4-trifluoro-6-[3-fluoro-2-methoxy-4-(trifluoromethoxy)phenoxy]benzoyl]amino]pyrimidine-2-carboxamide], the IC50 is 36 nM.

Consider `COc1c(Oc2cc(Cl)c(C)c(F)c2C(=O)Nc2ccnc(C(N)=O)c2)ccc(OC(F)(F)F)c1F` [Compound 309, 4-[[4-chloro-2-fluoro-6-[3-fluoro-2-methoxy-4-(trifluoromethoxy)phenoxy]-3-methyl-benzoyl]amino]pyridine-2-carboxamide], for which the 50% inhibitory concentration (IC50) amounted to 1.4 nM.

For the molecule `COc1c(Oc2ccc(C3CCC3)c(F)c2C(=O)Nc2ccnc(C(N)=O)c2)ccc(OC(F)(F)F)c1F` [Compound 310, 4-[[3-cyclobutyl-2-fluoro-6-[3-fluoro-2-methoxy-4-(trifluoromethoxy)phenoxy]benzoyl]amino]pyridine-2-carboxamide], the IC50 was 2.5 nM.

In the case of `COc1c(Oc2cc3c(cc2C(=O)Nc2ccnc(C(N)=O)c2)OC(F)(F)O3)ccc(OC(F)(F)F)c1F` [Compound 311, 4-[[2,2-difluoro-6-[3-fluoro-2-methoxy-4-(trifluoromethoxy)phenoxy]-1,3-benzodioxole-5-carbonyl]amino]pyridine-2-carboxamide], the half-maximal inhibitory concentration (IC50) was determined as 13 nM.

Turning to `COc1c(Oc2ccc(C(F)(F)F)c(C)c2C(=O)Nc2cc(C(N)=O)ncc2C)ccc(OC(F)(F)F)c1F` [Compound 312, 4-[[6-[3-fluoro-2-methoxy-4-(trifluoromethoxy)phenoxy]-2-methyl-3-(trifluoromethyl)benzoyl]amino]-5-methyl-pyridine-2-carboxamide], the concentration for half-maximal inhibition (IC50) came out at 7.9 nM.

For `COc1c(Oc2ccc(C(F)(F)F)c(C)c2C(=O)Nc2cc(C(N)=O)ccn2)ccc(OC(F)(F)F)c1F` [Compound 313, 2-[[6-[3-fluoro-2-methoxy-4-(trifluoromethoxy)phenoxy]-2-methyl-3-(trifluoromethyl)benzoyl]amino]pyridine-4-carboxamide], the half-inhibitory concentration (IC50) came to 121 nM.

For `COc1c(Oc2ccc(C(F)(F)F)c(C)c2C(=O)Nc2cnc(C(N)=O)nc2)ccc(OC(F)(F)F)c1F` [Compound 314, 5-[[6-[3-fluoro-2-methoxy-4-(trifluoromethoxy)phenoxy]-2-methyl-3-(trifluoromethyl)benzoyl]amino]pyrimidine-2-carboxamide], the IC50 amounted to 6.5 nM.

Take `COc1c(Oc2ccc(C(F)(F)F)c(C)c2C(=O)Nc2cc(C(N)=O)ncn2)ccc(OC(F)(F)F)c1F` [Compound 315, 6-[[6-[3-fluoro-2-methoxy-4-(trifluoromethoxy)phenoxy]-2-methyl-3-(trifluoromethyl)benzoyl]amino]pyrimidine-4-carboxamide]: the half-maximal inhibitory concentration (IC50) is 120 nM.

For `COc1c(Oc2ccc(C(F)(F)F)c(C)c2C(=O)Nc2cnc(C(N)=O)cn2)ccc(OC(F)(F)F)c1F` [Compound 316, 5-[[6-[3-fluoro-2-methoxy-4-(trifluoromethoxy)phenoxy]-2-methyl-3-(trifluoromethyl)benzoyl]amino]pyrazine-2-carboxamide], the half-maximal inhibitory concentration (IC50) stood at 24 nM.

On to `COc1c(Oc2ccc(C(F)(F)F)c(C)c2C(=O)Nc2ccc(C(N)=O)nn2)ccc(OC(F)(F)F)c1F` [Compound 317, 6-[[6-[3-fluoro-2-methoxy-4-(trifluoromethoxy)phenoxy]-2-methyl-3-(trifluoromethyl)benzoyl]amino]pyridazine-3-carboxamide], for which the IC50 turned out to be 520 nM.

As for `COc1c(Oc2cc(C(F)(F)F)cc(F)c2C(=O)Nc2cc(C(N)=O)ncc2C)ccc(OC(F)(F)F)c1F` [Compound 318, 4-[[2-fluoro-6-[3-fluoro-2-methoxy-4-(trifluoromethoxy)phenoxy]-4-(trifluoromethyl)benzoyl]amino]-5-methyl-pyridine-2-carboxamide], the concentration for half-maximal inhibition (IC50) stood at 15.1 nM.

Consider `[2H]C([2H])([2H])Oc1c(Oc2ccc(C(F)F)c(OC)c2C(=O)Nc2ccnc(C(N)=O)c2)ccc(OC(F)(F)F)c1F` [Compound 319, 4-[[3-(difluoromethyl)-6-[3-fluoro-2-(trideuteriomethoxy)-4-(trifluoromethoxy)phenoxy]-2-methoxy-benzoyl]amino]pyridine-2-carboxamide], for which the concentration for half-maximal inhibition (IC50) was determined as 5.2 nM.

As to `COc1cc(Oc2ccc(OC(F)(F)F)c(F)c2OC)c(C(=O)Nc2ccnc(C(N)=O)c2)c(F)c1C(F)(F)F` [Compound 320, 4-[[2-fluoro-6-[3-fluoro-2-methoxy-4-(trifluoromethoxy)phenoxy]-4-methoxy-3-(trifluoromethyl)benzoyl]amino]pyridine-2-carboxamide], the half-maximal inhibitory concentration (IC50) was 0.4 nM.

Regarding `COc1cc(Oc2ccc(OC(F)(F)F)c(F)c2OC)c(C(=O)Nc2ccc(C(N)=O)nc2)c(F)c1C(F)(F)F` [Compound 321, 5-[[2-fluoro-6-[3-fluoro-2-methoxy-4-(trifluoromethoxy)phenoxy]-4-methoxy-3-(trifluoromethyl)benzoyl]amino]pyridine-2-carboxamide], the IC50 was found to be 11 nM.

As to `COc1c(Oc2ccc(OC(F)(F)F)c(F)c2C(=O)Nc2ccnc(C(N)=O)c2)ccc(OC(F)(F)F)c1F` [Compound 322, 4-[[2-fluoro-6-[3-fluoro-2-methoxy-4-(trifluoromethoxy)phenoxy]-3-(trifluoromethoxy)benzoyl]amino]pyridine-2-carboxamide], the IC50 came out at 6.1 nM.

As for `COc1c(Oc2cc(C(F)(F)F)c(C)c(F)c2C(=O)Nc2ccnc(C(N)=O)c2)ccc(OC(F)(F)F)c1F` [Compound 323, 4-[[2-fluoro-6-[3-fluoro-2-methoxy-4-(trifluoromethoxy)phenoxy]-3-methyl-4-(trifluoromethyl)benzoyl]amino]pyridine-2-carboxamide], the half-maximal inhibitory concentration (IC50) came to 0.8 nM.

`COc1cc(Oc2ccc(OC(F)(F)F)c(F)c2OC)c(C(=O)Nc2ccnc(C(N)=O)c2)c(F)c1Cl` [Compound 324, 4-[[3-chloro-2-fluoro-6-[3-fluoro-2-methoxy-4-(trifluoromethoxy)phenoxy]-4-methoxy-benzoyl]amino]pyridine-2-carboxamide]: the half-maximal inhibitory concentration (IC50) was 1.7 nM.

On to `COc1c(Oc2cc(C(F)(F)F)c(OC)c(F)c2C(=O)Nc2ccnc(C(N)=O)c2)ccc(OC(F)(F)F)c1F` [Compound 325, 4-[[2-fluoro-6-[3-fluoro-2-methoxy-4-(trifluoromethoxy)phenoxy]-3-methoxy-4-(trifluoromethyl)benzoyl]amino]pyridine-2-carboxamide], for which the IC50 stood at 1.6 nM.

As to `COc1c(Cl)cc(Oc2ccc(OC(F)(F)F)c(F)c2OC)c(C(=O)Nc2ccnc(C(N)=O)c2)c1F` [Compound 326, 4-[[4-chloro-2-fluoro-6-[3-fluoro-2-methoxy-4-(trifluoromethoxy)phenoxy]-3-methoxy-benzoyl]amino]pyridine-2-carboxamide], the 50% inhibitory concentration (IC50) was determined as 1.3 nM.
